Experimental data reported in US20260217701A1, “SELECTIVE BET INHIBITORS AND USES THEREOF” (Tay Therapeutics Limited, priority 2022, published 2026).
“And” between values parts separate entries of the source, which are not always exact repeats. Identical values can stand only once. Like-named read-outs stand apart in the source and are kept apart here.

Test: Rat PK study #1 (Compound A PO, methylcellulose vs propylene glycol formulation)
Type: in vivo, Lewis rats
Method: For the first rat pharmacokinetic study, the pharmacokinetics of Compound A were assessed in male Lewis rats. Compound A was prepared in two different formulations (1% methylcellulose and 20% propylene glycol/20% Vitamin E/60% water) according to Table 3A (see Tables 2A and 2D for formulations). The formulations were made fresh prior to use. Animals were divided into two groups based on the compound formulation (n=3/group). The Compound A solutions were administered to animals orally (PO) and animals were then monitored over a 24 h period.
Blood samples (~0.2 mL) were collected according to a schedule (0.083, 0.25, 0.5, 1, 2, 4, 8, and 24 h following the initial dosing) via the jugular vein by cannulation and EDTA-K2 was used as anticoagulant. Within 30 minutes of collection, the samples were centrifuged at approximately 4000 times g-force for 5 minutes at 4° C. to obtain blood plasma. The plasma samples were immediately divided into two aliquots (~75 μL each), transferred to a cryogenic vial, and stored in a freezer at −75±15° C. prior to analysis.
The concentration of Compound A in plasma samples was determined by liquid chromatography-mass spectrometry (LC-MS/MS) using a Shimadzu HPLC (DGU-20A5R; LC-30AD; SIL-30AC; Rack changer II; CTO-31A; and CBM-20A) and an AB API 5500 LC/MS/MS instrument. Samples were analyzed on an Agilent Poroshell 120 EC-C18 4 μm (50×2.1 mm) column. Solution A in the mobile phase was 95% water (0.1% formic acid) and solution B was 95% acetonitrile in water (0.1% formic acid), injection volume was 3 μL, and flow rate was 0.6 mL/min.
To prepare samples for analysis, serial concentrations were prepared by diluting the stock solution of analyte with a 50% acetonitrile in water solution. 5 μL working solutions (5, 10, 20, 50, 100, 500, 1000, 5000, and 10000 ng/ml) were added to 50 μL of the blank Lewis rat plasma to achieve calibration standards of ~0.5 to 1000 ng/ml (0.5, 1, 2, 5, 10, 50, 100, 500, and 1000 ng/ml) in a total volume of 55 μL. Five quality control samples at 1 ng/ml, 2 ng/ml, 5 ng/mL, 50 ng/mL, and 800 ng/mL for plasma were prepared independently of those used for the calibration curves. These QC samples were prepared on the day of analysis in the same way as calibration standards.
55 μL of standards, 55 μL of QC samples and 55 μL of unknown samples (50 μL of unknown rat plasma with 5 μL of blank solution) were added to 200 μL of acetonitrile containing internal standard (IS; verapamil) mixture for precipitating protein respectively. The samples were then vortexed for 30 s. After centrifugation at 4° C., 3900 rpm for 15 min, the supernatant was diluted 3 times with water. 3 μL of diluted supernatant was injected into the LC/MS/MS system for quantitative analysis.

[1] = Lewis rats, PO 10 mg/kg, 1% methylcellulose formulation, individual animals, 10 mg/kg
[2] = Lewis rats, PO 10 mg/kg, 1% methylcellulose formulation, mean of 3 animals
[3] = Lewis rats, PO 10 mg/kg, propylene glycol/Vitamin E TPGS/water formulation, individual animals, 10 mg/kg
[4] = Lewis rats, PO 10 mg/kg, propylene glycol/Vitamin E TPGS/water formulation, mean of 3 animals
[5] = male, Lewis, rat, plasma, po, 10 mg/kg, Lewis rats, PO 10 mg/kg, 1% methylcellulose formulation, individual animals

In the case of `Cn1cc(-c2ccccc2)c(-c2cn(C)c(=O)c3[nH]c(-c4cnn(C(F)(F)F)c4)cc23)cc1=O` [Compound A, 6-methyl-4-(1-methyl-2-oxo-5-phenyl-1,2-dihydropyridin-4-yl)-2-(1-(trifluoromethyl)-1H-pyrazol-4-yl)-1,6-dihydro-7H-pyrrolo[2,3-c]pyridin-7-one], the “Plasma Concentration” value (Lewis rats, PO 10 mg/kg, 1% methylcellulose formulation, 0.083 h, individual animals) is reported as 0.00 ng/mL, the “Plasma Concentration” value (Lewis rats, PO 10 mg/kg, 1% methylcellulose formulation, 0.083 h, mean of 3 animals) is reported as “BLOQ” and the “Plasma Concentration” value (Lewis rats, PO 10 mg/kg, 1% methylcellulose formulation, 0.25 h, individual animals, 10 mg/kg) is reported as 1.37 ng/mL and 0.868 ng/mL and 0.603 ng/mL. The “Plasma Concentration” value (Lewis rats, PO 10 mg/kg, 1% methylcellulose formulation, 0.5 h, individual animals, 10 mg/kg) was 9.07 ng/mL and 4.15 ng/mL and 2.89 ng/mL, the “Plasma Concentration” value (Lewis rats, PO 10 mg/kg, 1% methylcellulose formulation, 1 h, individual animals, 10 mg/kg) was 10.7 ng/mL and 12.2 ng/mL and the “Plasma Concentration” value (Lewis rats, PO 10 mg/kg, 1% methylcellulose formulation, 2 h, individual animals, 10 mg/kg) was 21.6 ng/mL and 22.7 ng/mL. The “Plasma Concentration” value (Lewis rats, PO 10 mg/kg, 1% methylcellulose formulation, 4 h, individual animals, 10 mg/kg) was 49.2 ng/mL and 43.1 ng/mL, the “Plasma Concentration” value (Lewis rats, PO 10 mg/kg, 1% methylcellulose formulation, 8 h, individual animals, 10 mg/kg) was 29.3 ng/mL and 67.3 ng/mL and 50.6 ng/mL and the “Plasma Concentration” value (Lewis rats, PO 10 mg/kg, 1% methylcellulose formulation, 24 h, individual animals, 10 mg/kg) was 0.996 ng/mL and 1.52 ng/mL and 5.80 ng/mL. For the same compound, the AUClast [1] was 875 ng·h/mL and 726 ng·h/mL, the AUClast/D [1] was 48.0 mg·h/mL and 87.5 mg·h/mL and 72.6 mg·h/mL and the Cmax [1] was 67.3 ng/mL and 50.6 ng/mL. The F [1] was 2.51% and 4.57% and 3.79%, the AUClast/D [2] was 69.4 mg·h/mL and the F [2] was 3.62%. For the same compound, the “Plasma Concentration” value (Lewis rats, PO 10 mg/kg, propylene glycol/Vitamin E TPGS/water formulation, 0.083 h, individual animals, 10 mg/kg) was 3.72 ng/mL and 4.36 ng/mL, the “Plasma Concentration” value (Lewis rats, PO 10 mg/kg, propylene glycol/Vitamin E TPGS/water formulation, 0.25 h, individual animals, 10 mg/kg) was 39.8 ng/mL and 47.2 ng/mL and the “Plasma Concentration” value (Lewis rats, PO 10 mg/kg, propylene glycol/Vitamin E TPGS/water formulation, 0.5 h, individual animals, 10 mg/kg) was 134 ng/mL. For the same compound, the “Plasma Concentration” value (Lewis rats, PO 10 mg/kg, propylene glycol/Vitamin E TPGS/water formulation, 1 h, individual animals, 10 mg/kg) was 264 ng/mL and 263 ng/mL, the “Plasma Concentration” value (Lewis rats, PO 10 mg/kg, propylene glycol/Vitamin E TPGS/water formulation, 2 h, individual animals, 10 mg/kg) was 375 ng/mL and 424 ng/mL and the “Plasma Concentration” value (Lewis rats, PO 10 mg/kg, propylene glycol/Vitamin E TPGS/water formulation, 4 h, individual animals, 10 mg/kg) was 316 ng/mL and 437 ng/mL. For the same compound, the “Plasma Concentration” value (Lewis rats, PO 10 mg/kg, propylene glycol/Vitamin E TPGS/water formulation, 8 h, individual animals, 10 mg/kg) was 156 ng/mL and 145 ng/mL, the “Plasma Concentration” value (Lewis rats, PO 10 mg/kg, propylene glycol/Vitamin E TPGS/water formulation, 24 h, individual animals, 10 mg/kg) was 12.6 ng/mL and 12.5 ng/mL and the AUC_%Extrap_obs (Lewis rats, PO 10 mg/kg, propylene glycol/Vitamin E TPGS/water formulation, individual animals) was 2.25%. The AUClast [3] was 3428 ng·h/mL and 3755 ng·h/mL, the Cmax [3] was 375 ng/mL and 437 ng/mL and the F [3] was 25.8% and 17.1% and 19.6%. The AUClast/D [4] was 404, the F [4] was 20.8% and the Clinical observations (both formulations, PO, 24 h) was “no recorded clinical observations”. The “plasma concentration, propylene glycol-based vs methylcellulose-based formulation” value (male Lewis rats, PO, same dose) was “approximately 10 fold”, the concentration at 0.083 h (male, Lewis, rat, plasma, po, 10 mg/kg, Lewis rats, PO 10 mg/kg, 1% methylcellulose formulation, 0.083 h, individual animals) was 0 ng/mL and the concentration at 0.25 h (male, Lewis, rat, plasma, po, 10 mg/kg, Lewis rats, PO 10 mg/kg, 1% methylcellulose formulation, 0.25 h, mean of 3 animals) was 0.95 ng/mL. The concentration at 0.5 h (male, Lewis, rat, plasma, po, 10 mg/kg, Lewis rats, PO 10 mg/kg, 1% methylcellulose formulation, 0.5 h, mean of 3 animals) was 5.37 ng/mL, the concentration at 1 h (male, Lewis, rat, plasma, po, 10 mg/kg, Lewis rats, PO 10 mg/kg, 1% methylcellulose formulation, 1 h, individual animals) was 17.1 ng/mL and the concentration at 1 h (male, Lewis, rat, plasma, po, 10 mg/kg, Lewis rats, PO 10 mg/kg, 1% methylcellulose formulation, 1 h, mean of 3 animals) was 13.3 ng/mL. For the same compound, the concentration at 2 h (male, Lewis, rat, plasma, po, 10 mg/kg, Lewis rats, PO 10 mg/kg, 1% methylcellulose formulation, 2 h, individual animals) was 25.5 ng/mL, the concentration at 2 h (male, Lewis, rat, plasma, po, 10 mg/kg, Lewis rats, PO 10 mg/kg, 1% methylcellulose formulation, 2 h, mean of 3 animals) was 23.3 ng/mL and the concentration at 4 h (male, Lewis, rat, plasma, po, 10 mg/kg, Lewis rats, PO 10 mg/kg, 1% methylcellulose formulation, 4 h, individual animals) was 41.5 ng/mL. The concentration at 4 h (male, Lewis, rat, plasma, po, 10 mg/kg, Lewis rats, PO 10 mg/kg, 1% methylcellulose formulation, 4 h, mean of 3 animals) was 44.6 ng/mL, the concentration at 8 h (male, Lewis, rat, plasma, po, 10 mg/kg, Lewis rats, PO 10 mg/kg, 1% methylcellulose formulation, 8 h, mean of 3 animals) was 49.1 ng/mL and the concentration at 24 h (male, Lewis, rat, plasma, po, 10 mg/kg, Lewis rats, PO 10 mg/kg, 1% methylcellulose formulation, 24 h, mean of 3 animals) was 2.77 ng/mL. For the same compound, the AUC(0-t) [5] was 480 ng·h/mL, the Tmax [5] was 4 h and the Cmax (male, Lewis, rat, plasma, po, 10 mg/kg, Lewis rats, PO 10 mg/kg, 1% methylcellulose formulation, individual animals, read-out: Cmax) was 41.5 ng/mL.
